Assay results as given in paper PMC11013143, “4-Chloroisocoumarins as Chlamydial Protease Inhibitors and Anti-Chlamydial Agents” (Molecules, 2024).
pIC50: −log10 of the molar value.

Experiments:
CtHtrA = target: T1, CtHtrA (Chlamydia trachomatis serovar D, UniProt P18584); assay: CtHtrA protease inhibition assay; type: biochemical; conditions: for pIC50: IC50 against CtHtrA; for Relative Potency against CtHtrA: [IC50 of control]/[IC50 test compound]
T1 construct: made in house; host or cells: E. coli BL21(DE3), pET22b
T1 sequence (P18584 17-497): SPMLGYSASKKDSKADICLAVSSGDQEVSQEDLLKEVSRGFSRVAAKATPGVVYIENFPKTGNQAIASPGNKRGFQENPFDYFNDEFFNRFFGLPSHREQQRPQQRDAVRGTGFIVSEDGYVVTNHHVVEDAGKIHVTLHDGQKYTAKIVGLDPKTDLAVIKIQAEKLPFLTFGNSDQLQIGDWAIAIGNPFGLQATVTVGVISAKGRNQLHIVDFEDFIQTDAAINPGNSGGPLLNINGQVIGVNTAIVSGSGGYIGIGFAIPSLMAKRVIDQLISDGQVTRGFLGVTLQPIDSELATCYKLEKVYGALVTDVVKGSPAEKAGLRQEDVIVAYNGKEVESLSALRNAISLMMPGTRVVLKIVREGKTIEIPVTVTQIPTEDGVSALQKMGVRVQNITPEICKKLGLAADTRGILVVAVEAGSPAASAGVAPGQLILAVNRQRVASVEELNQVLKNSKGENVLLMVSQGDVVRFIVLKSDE
Method: The inhibitory activity of compounds 2a–g against CtHtrA was evaluated. […] As these compounds are reportedly covalent inhibitors of serine proteases, a true IC50 is unable to be calculated. Instead, the residual activity of the protease is monitored over time in response to a range of compound concentrations, and an IC50 value is interpolated from a dose–response curve (see Figures S2–S4 and Tables S1 and S2). This IC50 value is then compared to a positive control (JO146 was used for 2a–g, and 2g was used for 6a–h), giving the ‘relative potency’. This is the established method for assessing CtHtrA inhibitory potency. […] This effect may be due to depth restrictions within the S1 subpocket, as kinetic studies on the rates of protease inhibition in HLE were reduced by larger C-3 alkoxy substituents. Chain branching (iso-propyl and sec-butyl substituents) increased the activity, resulting in a 1.4-fold increase for 2e over 2b and a 2.8-fold improvement for 2g over 2c.
CtHtrA was expressed using an procedure adapted from the literature. Recombinant E. coli BL21(DE3) pET22b was grown in LB media containing 100 ug/mL ampicillin to an OD600 of 0.5-0.6 in 5 × 400 mL batches at 37 °C. Isopropyl β-D-1-thioglactopyranoside (1 M, 400 µL, 1 mM final concentration) was added to each flask and incubated at 30 °C with shaking at 150 rpm for an additional 2.5 h. The culture was centrifuged at 4000× g for 15 min at 4 °C, and the cell pellet was harvested and resuspended in lysis buffer (50 mM phosphate, 10 mM imidazole, 500 mM NaCl, 0.1% Triton X-100, 10% glycerol). Lysozyme was added to the suspended cells and was sonicated in 15 cycles of 15 s, with one minute between cycles while maintaining 4 °C, and then centrifuged at 8000× g for 20 min to remove any debris, retaining the supernatant for protein purification.
TALON® metal affinity resin (Takara cat no. 635652, 5 mL) was added to each lysate tube and washed sequentially with lysis buffer (2 × 45 mL) and stringency buffer (4 × 45 mL) and then eluted with elution buffer (2 × 5 mL), allowing incubations at 4 °C for 20 min per wash, and centrifuging at 2500× g and 4 °C between washes to pellet the resin. The eluates were dialyzed in Tris buffer (pH 7.0, 50 mM, 4 L) with magnesium chloride (20 mM) at 4 °C five times over 24 h, with a minimum of three hours per dialysis change. Protein expression and isolation were confirmed with SDS-PAGE Coomassie stained gel, which was examined for the band at the correct size, and a BCA assay to confirm purified protein concentration prior to use.
CtHtrA was added to 25 wells in a black 96-well plate (40–80 µL, 10 µL increments), to which Tris-HCl buffer (50 mM, pH 7.0 with 20 mM MgCl2) was added to bring the total volume to 90 µL for 10 wells and 85 µL for the remaining 15. JO146 (10 µM, 5 µL) was added to 5 wells and JO146 (1 µM, 5 µL) was added to another 5 wells, with DMSO (5 µL) being added to the remaining 5 as a control. The plate was incubated at 37 °C for 10 min before substrate (MCA-ENLHLPLPIIFK-DNP, 10 µL, 1 mg/mL, 50% isopropanol in buffer) was added and analyzed in a TECAN Infinite Pro M200 plate reader with an excitation wavelength of 340 nm and fluorescence measured at 405 nm with four reads per well at 60 s intervals. A minimum volume of CtHtrA granting a fluorescence change of 300 min^−1 was used for subsequent assay.
The determined appropriate volume of CtHtrA in buffer was added to a 96-well non-transparent black plate and diluted to 85 µL with buffer solution. Drug or control (5 µL) at a maximum of 20% DMSO/80% buffer was added to the appropriate well with DMSO controls, and the plate was incubated for 10 min to allow activation by the protein. MCA-ENLHLPLPIIFK-DNP (Mimotopes, Australia, 1 mg/mL, 10 µL) was added and immediately monitored on a TECAN M200 Infinite plate reader at 37 °C every 60 s for 30 min, using the same wavelengths as for the activity evaluation. […]

HEp-2 cells = assay: MTS cell viability assay, HEp-2 cells; type: cell-based, human; conditions: 24 h; for effect on HEp-2 cell viability: any tested concentration (31.25, 62.5, 125 µM)
Method: The cytotoxic effects of the 4-chloroisocoumarin compounds 2a–g and 6a–h (24 h) were tested against HEp-2 and McCoy B cells using the MTS cell viability assay. HEp-2 and McCoy B cells were selected, as these are routinely used for the cultivation of chlamydial species, and low cytotoxicity against host cells is required to evaluate the anti-chlamydial properties of a test compound [27].
HEp-2 (human epithelial type 2, CCL-23, ATCC®, Virginia, USA) or McCoy B (mouse fibroblast, CRL-1696, ATCC®) cells were grown to 80–100% confluence, and cell density was determined with a haemocytometer. Cells were then diluted to 1 × 10^5 cells/mL, and 100 µL was added to each well in a 96-well plate, with 3 wells left as controls. Cells were grown for 24 h, and the media was removed and then replaced with fresh media containing 0.1% DMSO and the drug for testing in triplicate. Drugs and cells were incubated for 24 h, and then 20 µL of MTS and PMS solution was added and then incubated for a further four hours. Absorbance was measured at 490 nm on a TECAN M200 Infinite plate reader and data were processed using Microsoft Excel^TM with the following equation to determine cell viability relative to DMSO controls. Cellviability%=AbsorbanceDrug−AbsorbanceDye/AbsorbanceDMSO−AbsorbanceDye

CCC(C)Oc1oc(=O)c2ccccc2c1Cl (racemic) [Compound 2g, (±)-3-sec-Butoxy-4-chloroisocoumarin]
Relative Selectivity (CtHtrA; (relative CtHtrA potency)/(relative HLE potency)): 14.6 | pIC50 (CtHtrA; Table S2, Batch 2, control JO146): 5.04 | pIC50 (CtHtrA; Table S2, Batch 3, control 2g): 4.46 | pIC50 (CtHtrA; Table S2, Batch 4, control 2g): 4.49 | pIC50 (CtHtrA; Table S2, Batch 5, control 2g): 4.55 | Relative Potency against CtHtrA (CtHtrA; control JO146): 6.58

CCC(C)Oc1oc(=O)c2cc(N)ccc2c1Cl (racemic) [Compound 6a, (±)-7-Amino-4-chloro-3-sec-butoxyisocoumarin]
pIC50 (CtHtrA; Table S2, Batch 3, control 2g): 3.97 | Relative Potency against CtHtrA (CtHtrA; control 2g): 0.326 | effect on HEp-2 cell viability / cytotoxicity (HEp-2 cells; 125 µM): reduced cell viability slightly

CCC(C)Oc1oc(=O)c2cc(N(C)C)ccc2c1Cl (racemic) [Compound 6b, (±)-7-(Dimethylamino)-3-sec-butoxy-4-chloroisocoumarin]
pIC50 (CtHtrA; Table S2, Batch 3, control 2g): 3.51 | Relative Potency against CtHtrA (CtHtrA; control 2g): 0.113 | effect on HEp-2 cell viability (HEp-2 cells): not found to significantly impact cytotoxicity

CCC(C)Oc1oc(=O)c2cc(NC(C)=O)ccc2c1Cl (racemic) [Compound 6c, (±)-N-(4-Chloro-1-oxo-3-sec-butoxy-isochromen-7-yl)acetamide]
pIC50 (CtHtrA; Table S2, Batch 3, control 2g): 3.66 | Relative Potency against CtHtrA (CtHtrA; control 2g): 0.158 | effect on HEp-2 cell viability (HEp-2 cells): did not significantly affect cell viability

CCC(C)Oc1oc(=O)c2cc(NC(=O)C(F)(F)F)ccc2c1Cl (racemic) [Compound 6d, (±)-N-(4-chloro-1-oxo-3-sec-butoxy-isochromen-7-yl)-2,2,2-trifluoroacetamide]
IC50 against CtHtrA (CtHtrA; Table S2, Batch 4, control 2g): Not active | Relative Potency against CtHtrA (CtHtrA; control 2g): <0.001 | effect on HEp-2 cell viability (HEp-2 cells): did not significantly affect cell viability

CCC(C)Oc1oc(=O)c2cc(I)ccc2c1Cl (racemic) [Compound 6e, (±)-3-sec-Butoxy-4-chloro-7-iodoisocoumarin]
IC50 against CtHtrA (CtHtrA; Table S2, Batch 4, control 2g): Not active | Relative Potency against CtHtrA (CtHtrA; control 2g): <0.001 | cytotoxicity against HEp-2 cells (HEp-2 cells; 62.5 µM): retained some cytotoxicity

CCC(C)Oc1oc(=O)c2cc(OC)ccc2c1Cl (racemic) [Compound 6h, (±)-7-Methoxy-3-sec-butoxy-4-chloroisocoumarin]
pIC50 (CtHtrA; Table S2, Batch 5, control 2g): 3.82 | Relative Potency against CtHtrA (CtHtrA; control 2g): 0.184 | effect on HEp-2 cell viability (HEp-2 cells): did not significantly affect cell viability
